Experiment [1] has as its target T1, Beta-adrenergic receptor kinase 1 (Homo sapiens, UniProt P25098).
T1 sequence (P25098 whole entry): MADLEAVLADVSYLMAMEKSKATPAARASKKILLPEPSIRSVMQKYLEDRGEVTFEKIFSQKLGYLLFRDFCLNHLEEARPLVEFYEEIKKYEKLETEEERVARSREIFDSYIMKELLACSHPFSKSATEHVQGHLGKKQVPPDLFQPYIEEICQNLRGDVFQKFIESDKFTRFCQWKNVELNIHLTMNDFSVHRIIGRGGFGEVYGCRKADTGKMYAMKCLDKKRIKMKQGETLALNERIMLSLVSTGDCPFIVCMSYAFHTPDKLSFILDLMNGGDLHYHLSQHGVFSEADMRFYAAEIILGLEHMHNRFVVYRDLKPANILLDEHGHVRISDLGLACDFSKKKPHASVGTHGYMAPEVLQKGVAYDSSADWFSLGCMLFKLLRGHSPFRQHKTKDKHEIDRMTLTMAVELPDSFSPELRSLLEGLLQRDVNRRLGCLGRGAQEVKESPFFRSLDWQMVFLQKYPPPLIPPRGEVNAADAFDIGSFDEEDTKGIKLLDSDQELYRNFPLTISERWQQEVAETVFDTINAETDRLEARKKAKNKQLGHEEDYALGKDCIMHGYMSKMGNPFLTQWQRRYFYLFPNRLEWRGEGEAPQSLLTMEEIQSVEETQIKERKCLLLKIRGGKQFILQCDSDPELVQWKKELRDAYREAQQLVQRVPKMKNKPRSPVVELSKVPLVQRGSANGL
As to the kind of experiment: Inhibition of GRK-2 (unknown origin) preincubated with enzyme for 10 mins before adding peptide substrate and ATP measured after 1 hr by LANCE-TR-FRET assay. (In general: In TR-FRET formats the signal depends on donor and acceptor labels being close together.)

Experiment [2] deals with G protein-coupled receptor kinase 5 (Homo sapiens, UniProt P34947).
Sequence of G protein-coupled receptor kinase 5 (P34947 whole entry): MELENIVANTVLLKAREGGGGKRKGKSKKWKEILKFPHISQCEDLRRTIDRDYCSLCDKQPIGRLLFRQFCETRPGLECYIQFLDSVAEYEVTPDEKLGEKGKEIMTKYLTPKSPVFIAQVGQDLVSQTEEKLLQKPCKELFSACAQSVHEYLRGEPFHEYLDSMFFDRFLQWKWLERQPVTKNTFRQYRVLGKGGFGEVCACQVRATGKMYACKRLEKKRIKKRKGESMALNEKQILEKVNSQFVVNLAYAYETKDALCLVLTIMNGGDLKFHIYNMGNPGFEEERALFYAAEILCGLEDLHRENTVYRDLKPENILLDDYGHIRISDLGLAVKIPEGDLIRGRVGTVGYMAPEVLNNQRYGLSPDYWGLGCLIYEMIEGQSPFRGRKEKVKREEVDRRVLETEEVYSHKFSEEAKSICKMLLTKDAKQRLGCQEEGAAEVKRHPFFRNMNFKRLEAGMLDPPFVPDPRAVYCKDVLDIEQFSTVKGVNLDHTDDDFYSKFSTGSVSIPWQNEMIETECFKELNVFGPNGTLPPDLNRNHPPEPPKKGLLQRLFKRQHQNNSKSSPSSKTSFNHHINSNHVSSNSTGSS
Description: Inhibition of GRK-5 (unknown origin) preincubated with enzyme for 10 mins before adding peptide substrate and ATP measured after 1 hr by LANCE-TR-FRET assay
Experiment [3] has as its target ALK tyrosine kinase receptor (Homo sapiens, UniProt Q9UM73). As to the kind of experiment: Inhibition of ALK (unknown origin).
In experiment [4] the target is Hepatocyte growth factor receptor (Homo sapiens, UniProt P08581). As to the kind of experiment: Inhibition of c-Met (unknown origin).
Sequence of Hepatocyte growth factor receptor (P08581 whole entry): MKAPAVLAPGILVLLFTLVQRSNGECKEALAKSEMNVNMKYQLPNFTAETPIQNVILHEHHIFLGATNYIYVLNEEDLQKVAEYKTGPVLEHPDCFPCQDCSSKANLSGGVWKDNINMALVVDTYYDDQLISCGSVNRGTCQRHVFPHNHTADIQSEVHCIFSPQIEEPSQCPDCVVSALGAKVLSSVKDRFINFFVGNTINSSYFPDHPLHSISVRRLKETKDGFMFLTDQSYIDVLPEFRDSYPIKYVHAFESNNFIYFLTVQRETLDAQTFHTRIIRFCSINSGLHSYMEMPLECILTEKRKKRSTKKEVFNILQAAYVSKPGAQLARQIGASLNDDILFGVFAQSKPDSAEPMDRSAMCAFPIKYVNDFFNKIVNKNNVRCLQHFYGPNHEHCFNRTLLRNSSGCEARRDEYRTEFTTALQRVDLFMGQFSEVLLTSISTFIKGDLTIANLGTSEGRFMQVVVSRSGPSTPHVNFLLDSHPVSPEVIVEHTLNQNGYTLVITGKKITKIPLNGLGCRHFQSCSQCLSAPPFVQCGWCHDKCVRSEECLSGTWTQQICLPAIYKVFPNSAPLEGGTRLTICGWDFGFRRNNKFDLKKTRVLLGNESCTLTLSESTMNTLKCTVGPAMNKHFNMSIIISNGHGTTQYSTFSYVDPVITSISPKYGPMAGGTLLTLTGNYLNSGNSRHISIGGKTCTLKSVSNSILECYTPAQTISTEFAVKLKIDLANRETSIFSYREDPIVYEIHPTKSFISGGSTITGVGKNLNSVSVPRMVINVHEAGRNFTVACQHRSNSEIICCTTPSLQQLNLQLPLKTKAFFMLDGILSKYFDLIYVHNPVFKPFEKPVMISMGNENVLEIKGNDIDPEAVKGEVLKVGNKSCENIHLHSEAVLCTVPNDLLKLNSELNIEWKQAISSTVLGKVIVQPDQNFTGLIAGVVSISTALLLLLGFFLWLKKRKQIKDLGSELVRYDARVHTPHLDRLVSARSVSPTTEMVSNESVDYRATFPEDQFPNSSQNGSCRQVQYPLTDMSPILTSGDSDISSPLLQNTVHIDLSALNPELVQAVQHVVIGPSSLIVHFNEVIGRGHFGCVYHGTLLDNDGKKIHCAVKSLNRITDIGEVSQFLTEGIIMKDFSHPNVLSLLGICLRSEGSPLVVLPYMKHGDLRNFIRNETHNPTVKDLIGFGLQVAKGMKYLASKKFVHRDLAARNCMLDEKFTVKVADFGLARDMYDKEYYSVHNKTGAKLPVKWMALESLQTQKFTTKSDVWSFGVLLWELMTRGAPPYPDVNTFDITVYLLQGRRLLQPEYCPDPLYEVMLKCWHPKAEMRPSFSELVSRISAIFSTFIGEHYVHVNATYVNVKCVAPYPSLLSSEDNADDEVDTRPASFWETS

As a reminder, the IC50 is the concentration needed to halve the response being measured. Low readings indicate greater potency, high ones weaker potency.

A value given as a limit tells only on which side of the number the result lay.

Sequence of ALK tyrosine kinase receptor (Q9UM73 whole entry): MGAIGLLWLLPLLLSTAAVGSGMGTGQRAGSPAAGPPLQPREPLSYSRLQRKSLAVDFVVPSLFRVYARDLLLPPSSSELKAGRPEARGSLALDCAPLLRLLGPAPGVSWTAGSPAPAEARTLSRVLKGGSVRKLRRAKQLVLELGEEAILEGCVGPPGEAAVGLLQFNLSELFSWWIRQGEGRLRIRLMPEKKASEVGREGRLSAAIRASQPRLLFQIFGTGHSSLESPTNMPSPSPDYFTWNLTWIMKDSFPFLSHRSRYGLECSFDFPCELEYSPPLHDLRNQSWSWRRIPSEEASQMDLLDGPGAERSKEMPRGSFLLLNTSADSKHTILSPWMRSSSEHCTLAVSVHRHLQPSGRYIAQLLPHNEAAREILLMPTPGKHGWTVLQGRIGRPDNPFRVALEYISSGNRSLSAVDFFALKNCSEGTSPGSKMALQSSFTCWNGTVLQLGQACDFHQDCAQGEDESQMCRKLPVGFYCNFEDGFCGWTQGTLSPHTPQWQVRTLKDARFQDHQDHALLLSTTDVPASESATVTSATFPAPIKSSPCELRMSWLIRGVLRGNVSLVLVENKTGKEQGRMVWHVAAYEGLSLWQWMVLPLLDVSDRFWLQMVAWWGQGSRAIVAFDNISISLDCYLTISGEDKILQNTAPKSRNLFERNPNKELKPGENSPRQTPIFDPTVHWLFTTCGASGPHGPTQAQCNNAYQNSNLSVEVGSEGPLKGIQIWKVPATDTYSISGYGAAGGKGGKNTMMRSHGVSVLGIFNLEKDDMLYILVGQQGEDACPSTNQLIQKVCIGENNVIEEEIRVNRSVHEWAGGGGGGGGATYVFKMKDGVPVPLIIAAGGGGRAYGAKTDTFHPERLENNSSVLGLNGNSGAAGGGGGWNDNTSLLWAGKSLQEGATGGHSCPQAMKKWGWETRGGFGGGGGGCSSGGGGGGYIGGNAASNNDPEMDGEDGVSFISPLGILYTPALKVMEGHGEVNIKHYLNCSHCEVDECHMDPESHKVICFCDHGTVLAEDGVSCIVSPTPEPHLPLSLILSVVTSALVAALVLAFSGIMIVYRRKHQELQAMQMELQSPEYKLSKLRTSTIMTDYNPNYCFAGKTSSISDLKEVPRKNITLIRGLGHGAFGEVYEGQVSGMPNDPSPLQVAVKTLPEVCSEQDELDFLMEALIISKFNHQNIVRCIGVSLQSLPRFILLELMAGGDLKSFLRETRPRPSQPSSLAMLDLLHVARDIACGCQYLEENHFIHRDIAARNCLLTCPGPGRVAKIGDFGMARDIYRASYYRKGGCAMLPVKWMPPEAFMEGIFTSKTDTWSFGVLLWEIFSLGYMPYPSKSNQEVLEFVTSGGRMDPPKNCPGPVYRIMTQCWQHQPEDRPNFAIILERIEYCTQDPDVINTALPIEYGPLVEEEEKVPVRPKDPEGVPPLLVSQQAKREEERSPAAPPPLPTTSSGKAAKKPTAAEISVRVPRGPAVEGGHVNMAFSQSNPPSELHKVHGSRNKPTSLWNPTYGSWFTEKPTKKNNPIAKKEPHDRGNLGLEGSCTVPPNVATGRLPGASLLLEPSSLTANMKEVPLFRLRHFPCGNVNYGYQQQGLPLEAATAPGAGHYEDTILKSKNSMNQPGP

As for `Nc1ncc(-c2cnn(C3CCNCC3)c2)cc1-c1nc2ccc(NC(=O)Nc3ccccc3)cc2o1`, the half-maximal inhibitory concentration (IC50) turned out to be 2.63 µM in experiment [1] and 1.66 µM in experiment [2]. The like results for `Nc1ncc(-c2cnn(C3CCNCC3)c2)cc1-c1nc2ccc(Nc3ccc(F)cc3)cc2o1` were, in that order, 9.3 µM and 3.7 µM. The compound `Cc1ccc(S(=O)(=O)NC(=O)Nc2ccc3nc(-c4cc(-c5cnn(C6CCNCC6)c5)cnc4N)oc3c2)cc1` came in with a half-maximal inhibitory concentration (IC50) in experiment [1] of 8.3 µM.

On to `CC(=O)Nc1ccc2oc(-c3cc(-c4cnn(C5CCNCC5)c4)cnc3N)nc2c1`, for which the concentration for half-maximal inhibition (IC50) is 3.06 µM in experiment [1] and 3.22 µM in experiment [2].

In experiment [1], `CNc1ccc2oc(-c3cc(-c4cnn(C5CCNCC5)c4)cnc3N)nc2c1` gave an IC50 of 6.32 µM. This counts as single-digit micromolar. The same measure, in the same setting: with `Nc1ncc(-c2cnn(C3CCNCC3)c2)cc1-c1nc2ccc(O)c(-c3ccccc3)c2o1` the figure was 9.7 µM. Consider `Cc1c(O)ccc2nc(-c3cc(-c4cnn(C5CCNCC5)c4)cnc3N)oc12`, for which the concentration for half-maximal inhibition (IC50) in experiment [1] turned out to be 13 µM; in experiment [2], 2.2 µM. For `Nc1ncc(-c2cnn(C3CCNCC3)c2)cc1-c1nc2ccc(Oc3ncccn3)cc2o1`, the IC50 in experiment [1] is over 10 µM; in experiment [2] it was 3.1 µM. In experiment [1], `Cc1cc2nc(-c3cc(-c4cnn(C5CCNCC5)c4)cnc3N)oc2cc1O` returned a half-inhibitory concentration (IC50) of 2.14 µM. In the case of `Nc1ccc2nc(-c3cc(-c4cnn(C5CCNCC5)c4)cnc3N)oc2c1`, the concentration for half-maximal inhibition (IC50) in experiment [1] was determined as 6.2 µM; in experiment [2], 1.94 µM.

With `Nc1ccc2oc(-c3cc(-c4cnn(C5CCNCC5)c4)cnc3N)nc2c1`, in experiment [1], half-maximal inhibition (IC50) was put at 4.22 µM. Turning to `Nc1ncc(-c2cnn(C3CCNCC3)c2)cc1-c1nc2cc(Nc3ccccc3)ccc2o1`, the values for the IC50 in experiment [1] and in experiment [2] were 4.9 µM and 3.5 µM, respectively. With `CCCCNc1ccc2oc(-c3cc(-c4cnn(C5CCNCC5)c4)cnc3N)nc2c1`, in experiment [1], it took 5.52 µM to reach half-maximal inhibition (IC50).

In the case of `CN(C)c1ccc2oc(-c3cc(-c4cnn(C5CCNCC5)c4)cnc3N)nc2c1`, the figures for the IC50 in experiment [1] and in experiment [2] were 8.27 µM and 1.76 µM, respectively. In the case of `CCCNc1ccc2oc(-c3cc(-c4cnn(C5CCNCC5)c4)cnc3N)nc2c1`, 3.19 µM corresponded to half-maximal inhibition in experiment [1] (IC50). On to `Nc1ncc(-c2cnn(C3CCNCC3)c2)cc1-c1nc2cc(-c3ccccc3)ccc2o1`, for which the 50% inhibitory concentration (IC50) in experiment [1] is over 10 µM; in experiment [2], 4.5 µM. The like results for `Nc1ncc(-c2cnn(C3CCNCC3)c2)cc1-c1nc2ccc(N3CCCCC3)cc2o1` were, in that order, 10.1 µM and 4.3 µM. As to `Nc1ncc(-c2cnn(C3CCNCC3)c2)cc1-c1nc2ccc(N3CCOCC3)cc2o1`, the figures for the IC50 in experiment [1] and in experiment [2] were 5.3 µM and 0.81 µM, respectively. `Nc1ncc(-c2cnn(C3CCNCC3)c2)cc1-c1nc2ccc(N3CCCC3)cc2o1`: the half-inhibitory concentration (IC50) worked out at 0.34 µM in experiment [3], 0.008 µM in experiment [4] and 0.46 µM in experiment [1]. Take `CC(C)Nc1ccc2nc(-c3cc(-c4cnn(C5CCNCC5)c4)cnc3N)oc2c1`: the concentration for half-maximal inhibition (IC50) in experiment [1] was over 10 µM.

As to `Nc1ncc(-c2cnn(C3CCNCC3)c2)cc1-c1nc2ccc(Nc3cc(C(F)(F)F)cc(C(F)(F)F)c3)cc2o1`, the concentration for half-maximal inhibition (IC50) in experiment [1] turned out to be 5.7 µM; in experiment [2], 4.2 µM. The corresponding values for `Nc1ncc(-c2cnn(C3CCNCC3)c2)cc1-c1nc2ccc(Nc3c(F)cccc3F)cc2o1` are 11.5 µM and 4.7 µM. The corresponding values for `Nc1ncc(-c2cnn(C3CCNCC3)c2)cc1-c1nc2ccc(Nc3cc(F)cc(F)c3)cc2o1` are 2.26 µM and 1.25 µM. The corresponding values for `Nc1ncc(-c2cnn(C3CCNCC3)c2)cc1-c1nc2ccc(-c3cn[nH]c3)cc2o1` are 10 µM and 1.78 µM. For the compound `Nc1ncc(-c2cnn(C3CCNCC3)c2)cc1-c1nc2ccc(OCc3ccccc3)cc2o1`, the results for the IC50 in experiment [1] and in experiment [2] were over 10 µM and 6.9 µM, respectively. The like results for `Nc1ncc(-c2cnn(C3CCNCC3)c2)cc1-c1nc2ccc(Oc3ccccc3)cc2o1` were, in that order, over 10 µM and 4 µM. The like results for `Nc1ncc(-c2cnn(C3CCNCC3)c2)cc1-c1nc2ccc(-c3ccc4[nH]ncc4c3)cc2o1` were, in that order, 4.05 µM and 1.14 µM. The like results for `Nc1ncc(-c2cnn(C3CCNCC3)c2)cc1-c1nc2ccc(OCc3ccc(F)cc3)cc2o1` were, in that order, 11.9 µM and 1.31 µM. As to `Nc1ncc(-c2cnn(C3CCNCC3)c2)cc1-c1nc2ccc(Oc3ccc(F)cc3)cc2o1`, the half-maximal inhibitory concentration (IC50) in experiment [1] is over 10 µM; in experiment [2], 7.9 µM. The corresponding values for `Nc1ncc(-c2cnn(C3CCNCC3)c2)cc1-c1nc2ccc(Oc3cc(Cl)ccn3)cc2o1` are 17 µM and 5.7 µM. On to `N#Cc1ccnc(Oc2ccc3nc(-c4cc(-c5cnn(C6CCNCC6)c5)cnc4N)oc3c2)c1`, for which the concentration for half-maximal inhibition (IC50) in experiment [1] amounted to 8.1 µM; in experiment [2], 3.6 µM. For the compound `Nc1ncc(-c2cnn(C3CCNCC3)c2)cc1-c1nc2ccc(Oc3ccc(-c4ccccc4)nn3)cc2o1`, the half-inhibitory concentration (IC50) worked out at 3.8 µM in experiment [1] and 1.2 µM in experiment [2]. The like results for `Nc1ncc(-c2cnn(C3CCNCC3)c2)cc1-c1nc2ccc(Nc3ccccn3)cc2o1` were, in that order, 6.05 µM and 4.2 µM. For `COc1ccc(N(C(=O)Nc2ccc3nc(-c4cc(-c5cnn(C6CCNCC6)c5)cnc4N)oc3c2)c2ccccc2)cc1`, the IC50 in experiment [1] worked out at 0.66 µM. This counts as sub-micromolar.

With `Nc1ncc(-c2cnn(C3CCNCC3)c2)cc1-c1nc2ccc(NC(=O)Nc3ccc(F)cc3)cc2o1`, in experiment [1], the IC50 is 1.72 µM. As for `Nc1ncc(-c2cnn(C3CCNCC3)c2)cc1-c1nc2ccc(NC(=O)c3ccccc3)cc2o1`, the IC50 in experiment [1] amounted to 3.19 µM; in experiment [2], 3.49 µM. With `Nc1ncc(-c2cnn(C3CCNCC3)c2)cc1-c1nc2ccc(NC(=O)c3ccc(C(F)(F)F)cc3)cc2o1`, the concentration for half-maximal inhibition (IC50) was determined as 3.2 µM in experiment [1] and 2.83 µM in experiment [2].

In experiment [1], `Nc1ncc(-c2cnn(C3CCNCC3)c2)cc1-c1nc2ccc(NC(=O)c3ccc(F)cc3)cc2o1` displayed an IC50 of 0.96 µM. For `COc1ccc(C(=O)Nc2ccc3nc(-c4cc(-c5cnn(C6CCNCC6)c5)cnc4N)oc3c2)cc1`, the IC50 in experiment [1] stood at 3.97 µM; in experiment [2], 2.09 µM. The corresponding values for `CS(=O)(=O)Oc1ccc2nc(-c3cc(-c4cnn(C5CCNCC5)c4)cnc3N)oc2c1` are over 10 µM and 6.4 µM.

Turning to `COc1ccc(-c2ccc3nc(-c4cc(-c5cnn(C6CCNCC6)c5)cnc4N)oc3c2)cc1`, the IC50 in experiment [1] is 3.06 µM; in experiment [2], 3.22 µM.

The compound `CC(C)NC(=O)c1cc2nc(-c3cc(-c4cnn(C5CCNCC5)c4)cnc3N)oc2cc1O` registered an IC50 in experiment [1] of over 10 µM. In the case of `CN(C)COc1cccc(-c2cnc(N)c(-c3nc4cccc(-c5ccccn5)c4o3)c2)c1`, the figures for the concentration for half-maximal inhibition (IC50) in experiment [1] and in experiment [2] were over 10 µM and 5.1 µM, respectively. In experiment [1], `Nc1ncc(-c2cccc(C(=O)NCCN3CCOCC3)c2)cc1-c1nc2cccc(-c3ccccn3)c2o1` showed an IC50 of over 10 µM. The same measure, in the same setting: with `Nc1ncc(-c2cnn(C3CCNCC3)c2)cc1-c1nc2ccc(O)c(-c3ccc4cn[nH]c4c3)c2o1` the figure was 6.5 µM.

Compound `COc1ccc(-c2c(O)ccc3nc(-c4cc(-c5cnn(C6CCNCC6)c5)cnc4N)oc23)cc1` displayed an IC50 in experiment [1] of over 10 µM.

Take `CCc1ccc2nc(-c3cc(-c4cnn(C5CCNCC5)c4)cnc3N)oc2c1O`: the values for the IC50 in experiment [1] and in experiment [2] were over 10 µM and 3.4 µM, respectively. The corresponding values for `COc1ccc2nc(-c3cc(-c4cnn(C5CCNCC5)c4)cnc3N)oc2c1-c1ccc2cn[nH]c2c1` are 9.16 µM and 2.21 µM. In turn, `Nc1ncc(-c2cnn(C3CCNCC3)c2)cc1-c1nc2cc(N3CCCCC3)ccc2o1` came in with a half-inhibitory concentration (IC50) in experiment [1] of 0.85 µM. On to `Nc1ncc(-c2cnn(C3CCNCC3)c2)cc1-c1nc2cc(N3CCOCC3)ccc2o1`, for which the IC50 in experiment [1] is 6.43 µM; in experiment [2] it was 1.05 µM. As for `Nc1ncc(-c2cnn(C3CCNCC3)c2)cc1-c1nc2cc(N3CCCC3)ccc2o1`, the IC50 in experiment [1] is 1.65 µM.

In the case of `CN(c1ccccc1)c1ccc2oc(-c3cc(-c4cnn(C5CCNCC5)c4)cnc3N)nc2c1`, the figures for the IC50 in experiment [1] and in experiment [2] were 13 µM and 5.05 µM, respectively.

(Values after ChEMBL document CHEMBL3091334, “Design and synthesis of novel 3-(benzo[d]oxazol-2-yl)-5-(1-(piperidin-4-yl)-1H-pyrazol-4-yl)pyridin-2-amine derivatives as selective G-protein-coupled receptor kinase-2 and -5 inhibitors” (Bioorg Med Chem Lett, 2013).)
